“And” between values parts separate entries of the source, which are not always exact repeats. Identical values can stand only once. Like-named read-outs stand apart in the source and are kept apart here. Marks after values point to notes of the source that are not given here. Each block holds one compound with its values, some of them ahead of it.
Key:
[1] = target: T1, PSMA on LNCaP cells (Homo sapiens, UniProt Q04609); test: Competitive binding assay against 99mTc-MIP-1427 for binding to PSMA on LNCaP cells; conditions: non-radioactive fluorine-containing ligands, 1 nM 99mTc-MIP-1427, 1 hour
T1 construct: host or cells: LNCaP
T1 sequence (Q04609 whole entry): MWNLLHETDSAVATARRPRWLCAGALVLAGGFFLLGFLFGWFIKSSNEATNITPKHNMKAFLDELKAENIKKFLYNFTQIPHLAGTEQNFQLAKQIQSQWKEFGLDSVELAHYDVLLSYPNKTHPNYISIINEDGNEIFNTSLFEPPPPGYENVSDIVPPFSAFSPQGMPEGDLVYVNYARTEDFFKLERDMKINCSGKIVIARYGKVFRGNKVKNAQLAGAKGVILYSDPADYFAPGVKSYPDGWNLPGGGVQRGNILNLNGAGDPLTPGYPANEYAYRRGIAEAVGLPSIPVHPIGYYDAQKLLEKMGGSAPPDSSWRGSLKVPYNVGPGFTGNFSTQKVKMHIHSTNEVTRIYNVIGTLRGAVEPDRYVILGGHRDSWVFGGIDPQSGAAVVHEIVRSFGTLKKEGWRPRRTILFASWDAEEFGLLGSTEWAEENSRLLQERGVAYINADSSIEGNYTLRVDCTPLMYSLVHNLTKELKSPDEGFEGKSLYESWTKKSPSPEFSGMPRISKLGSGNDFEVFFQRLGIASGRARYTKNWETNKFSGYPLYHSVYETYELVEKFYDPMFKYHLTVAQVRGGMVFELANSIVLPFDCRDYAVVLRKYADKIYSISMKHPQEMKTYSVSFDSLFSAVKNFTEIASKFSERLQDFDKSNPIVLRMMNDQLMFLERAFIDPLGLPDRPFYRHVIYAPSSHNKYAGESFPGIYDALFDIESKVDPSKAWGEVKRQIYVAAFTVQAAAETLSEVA
Description: Cell Culture. The human prostate cancer cell line, LNCaP, was obtained from the American Type Culture Collection. Cell culture supplies were from Invitrogen unless otherwise noted. LNCaP cells were maintained in RPMI-1640 medium supplemented with 10% fetal bovine serum (Hyclone), 4 mM L-glutamine, 1 mM sodium pyruvate, 10 mM N-2-hydroxyethylpiperazine-N-2-ethanesulfonic acid (HEPES), 2.5 mg/mL D-glucose, and 50 μg/mL gentamicin in a humidified incubator at 37° C./5% C02. Cells were removed from flasks for passage or for transfer to 12-well assay plates by incubating them with 0.25% trypsin/ethylenediaminetetraacetic acid (EDTA).
In vitro determination of IC50. IC50 values of the non-radioactive fluorine-containing ligands were determined by screening in a multi-concentration competitive binding assay against ^99mTc-((7S,12S,16S)-1-(1-(carboxymethyl)-1H-imidazol-2-yl)-2-((1-(carboxymethyl)-1H-imidazol-2-yl)methyl)-9,14-dioxo-2,8,13,15-tetraazaoctadecane-7,12,16,18-tetracarboxylic acid technetium tricarbonyl complex) (^99mTc-MIP-1427) for binding to PSMA on LNCaP cells, according to methods previously described. See Hillier S M, Maresca K P, Lu G, Merkin R D, Marquis J C, Zimmerman C N, Eckelman W C, Joyal J L, Babich J W. 99mTc-Labeled Small-Molecule Inhibitors of Prostate-Specific Membrane Antigen for Molecular Imaging of Prostate Cancer. J. Nucl. Med. 2013, 54, 1369-1376, incorporated herein by reference. The LNCaP cells were plated 48 hours prior to the experiment to achieve a density of approximately 5×10^5 cells/well (in triplicate) in RPMI-1640 medium supplemented with 0.25% bovine serum albumin prior to performing the assay. LNCaP cells were incubated for 1 hour with 1 nM ^99mTc-MIP-1427 in serum free RPMI-1640 medium in the presence of 1-10,000 nM test compounds. Radioactive incubation media was then removed by pipette and the cells were washed twice using 1 mL ice-cold HEPES buffer. Cells were harvested from the plates and transferred to tubes for radioactive counting using a Packard Cobra II Gamma Counter. IC50 values were determined by non-linear regression using GraphPad Prism software.

[2] = test system: LNCaP xenograft tumor; test: microPET/CT imaging of LNCaP xenograft tumor-bearing mice; type: in vivo; conditions: for Max. LNCaP Tumor Uptake: image derived calculation of tumor uptake (microPET/CT), at time of maximum uptake; for Time p.i. of max. LNCaP tumor uptake: microPET/CT imaging at 1, 2, 4, 6 h; for Route of clearance / excretion: from microPET/CT images
Description: (§1) Inoculation of mice with xenografts. All animal studies were approved by the Institutional Animal Care and Use Committee of Weill Cornell Medicine and were undertaken in accordance with the guidelines set forth by the USPHS Policy on Humane Care and Use of Laboratory Animals. Animals were housed under standard conditions in approved facilities with 12 h light/dark cycles. Food and water was provided ad libitum throughout the course of the studies. Male inbred athymic nu/nu mice were purchased from The Jackson Laboratory. For inoculation in mice, LNCaP cells were suspended at 4×10^7 cells/mL in a 1:1 mixture of PBS:Matrigel (BD Biosciences). Each mouse was injected in the left flank with 0.25 mL of the cell suspension. The mice were imaged when the tumors reached approximately 200-400 mm^3, while biodistributions were conducted when tumors were in the range 100-400 mm^3.
Imaging. […] Specific activity was greater than […]. The mice were imaged by pPET/CT (Inveon™; Siemens Medical Solutions, Inc.) at 1 h, 2 h, 4 h, and 6 h post-injection ([^18F]fluorinated compounds) or 1 h and 3 h post-injection ([^68Ga]Ga-PSMA-HBED-CC). Total acquisition time was thirty minutes, and a CT scan was obtained either immediately before or immediately after the acquisition for both anatomical co-registration and attenuation correction. The data were reconstructed using the commercial Inveon™ software supplied by the vendor. Tumor uptake was estimated by drawing a region of interest (ROI).

[3] = test system: LNCaP tumor xenografts; conditions: 1 h post injection, reported; cited from earlier work
[4] = target: T2, PSMA (Homo sapiens, UniProt Q04609); conditions: for PSMA, competitive binding assay using LNCaP cells, literature value, cited from earlier work
T2 construct: host or cells: LNCaP
T2 sequence (Q04609 whole entry): as above

[5] = test system: LNCaP tumor; conditions: reported study, cited from earlier work; for Tumor uptake (Max. LNCaP Tumor Uptake): 3 h post injection
[6] = test system: LNCaP tumor; conditions: literature value, cited from earlier work
[7] = test system: LNCaP xenograft tumor; test: Ex vivo biodistribution in LNCaP xenograft tumor-bearing mice; conditions: for Tumor uptake / Max. LNCaP Tumor Uptake: n=5; for Tumor uptake relative to [68Ga]Ga-PSMA-HBED-CC: at the time of maximum tumor uptake; for Time p.i. of max. LNCaP tumor uptake: biodistribution at 1, 2, 4 h; for Max. LNCaP Tumor Uptake: biodistribution
Description: as §1
Biodistribution. LNCaP xenograft tumor-bearing mice (n=5 per time point) were injected via the tail vein with a bolus injection of 370 kBq (10 μCi) of either [^18F]RPS-040 or [^18F]RPS-041. The specific activity of the compounds was […], respectively. The mice were euthanized by asphyxiation under isofluorane at 1 h, 2 h and 4 h post injection. An additional set of mice (n=5) was co-administered [^18F]RPS-040 (370 kBq; 10 μCi) and 2-PMPA (approx. 250 μg; 10 mg/kg) and sacrificed at 1 h post injection to determine the uptake specificity. A full biodistribution study was conducted on all mice, and tissues were excised, weighed and counted in an automated γ-counter. Tissue time-activity values were expressed as percentage injected dose per gram of tissue (% ID/g). Statistical comparisons were performed using the standard Student's t-test for a 95% confidence interval.

[8] = listed as [^68Ga]Ga-PSMA-HBED-CC
[9] = 1 h post injection, co-administered with 2-PMPA (blocked)

Structure (SMILES): O=C(O)CCC(NC(=O)NC(CCCCNC(=O)c1ccc(F)nc1)C(=O)O)C(=O)O (centres unmarked) [DCFPyL, 2-(3-{1-Carboxy-5-[(6-fluoropyridine-3-carbonyl)-amino]-pentyl}-ureido)-pentanedioic acid, reference compound]
- Max. LNCaP Tumor Uptake [2]: 5.71 ± 0.61^c % ID/g
- Time p.i. of max. LNCaP tumor uptake [2]: 1 h
- Tumor washout ([2]; microPET/CT imaging up to 6 h post injection): rapid tumor washout
- SUVmax [3]: 1.1±0.1

Structure (SMILES): O=C([O-])CN(CCN(CC(=O)[O-])Cc1cc(CCC(=O)NCCCCCC(=O)NCCCC[C@H](NC(=O)N[C@@H](CCC(=O)O)C(=O)O)C(=O)O)ccc1[O-])Cc1cc(CCC(=O)O)ccc1[O-].[68Ga+3].[OH3+] [^68Ga-PSMA-HBED-CC]
- Uptake in the liver or intestine ([2]; microPET/CT, 1 h post injection): No uptake
- IC50 [4]: 24.3 ± 2 nM
- IC50 [4, 8]: ~24 nM
- Activity in the kidney ([5]; 1 h): 314.44±90.61 % ID/g
- Activity in the spleen ([5]; 1 h): 31.73±14.09 % ID/g
- Tumor uptake ([5]; 1 h post injection): 5.81±1.67 % ID/g
- Activity in the kidney ([5]; 3 h): 207.97±58.38 % ID/g
- Activity in the spleen ([5]; 3 h): 13.85±3.53 % ID/g
- Tumor uptake (Max. LNCaP Tumor Uptake) [5]: 6.27 ± 1.44 % ID/g
- Tumor uptake (Max. LNCaP Tumor Uptake) [5, 8]: 6.27±1.44 % ID/g
- Time p.i. of max. LNCaP tumor uptake ([5]; 1 h and 3 h): 3 h

Structure (SMILES): O=C(O)CC[C@H](NC(=O)N[C@@H](CCCCNC(=O)Nc1ccc(I)cc1)C(=O)O)C(=O)O [MIP-1095]
- IC50 [1]: 0.3 nM
- Max. LNCaP Tumor Uptake ([6]; 4 h p.i.): 34.3 ± 12.7^a % ID/g
- Time p.i. of max. LNCaP tumor uptake [6]: 4 h

Now from value to compound, other results behind:

- IC50 [1]: 36.5 nM
- Max. LNCaP Tumor Uptake [2]: 9.04 ± 1.88^c % ID/g
- Time p.i. of max. LNCaP tumor uptake [2]: 2 h
Structure (SMILES): O=C(O)CC[C@H](NC(=O)N[C@@H](CCCCNC(=O)Nc1cccc(OCc2cn(CCF)nn2)c1)C(=O)O)C(=O)O [RPS-043, (((S)-1-Carboxy-5-(3-(3-((1-(2-fluoroethyl)-1H-1,2,3-triazol-4-yl)methoxy)phenyl)ureido)pentyl)carbamoyl)-L-glutamic acid]

- IC50 [1]: 7 nM
- Max. LNCaP Tumor Uptake [2]: 14.30 % ID/g
- Tumor-to-blood ratio ([7]; 1 h post injection): 28.8±8.06
- Tumor-to-blood ratio relative to [68Ga]Ga-PSMA-HBED-CC ([7]; 1 h post injection): three-fold greater
- Tumor-to-kidney ratio (contrast) relative to [68Ga]Ga-PSMA-HBED-CC ([7]; 1 h post injection): ten
- Uptake in the kidneys [7, 9]: 5.95±1.65 % ID/g
- Uptake in the spleen [7, 9]: 0.32±0.05 % ID/g
- Tumor uptake [7, 9]: 1.75±0.15 % ID/g
- Uptake in the kidneys ([7]; 1 h post injection, unblocked): 74.24±10.71 % ID/g
- Uptake in the spleen ([7]; 1 h post injection, unblocked): 4.97±1.55 % ID/g
- Tumor uptake ([7]; 1 h post injection, unblocked): 12.69±1.56 % ID/g
- Uptake in the kidneys ([7]; 2 h post injection): 60.94±8.06 % ID/g
- Uptake in the liver ([7]; 2 h post injection): 4.72±0.93 % ID/g
- Uptake in the spleen ([7]; 2 h post injection): 3.23±1.26 % ID/g
- Tumor-to-blood ratio ([7]; 4 h post injection): 92.93±75.67
- Tumor uptake relative to [68Ga]Ga-PSMA-HBED-CC [7]: more than two-fold greater
- Time p.i. of max. LNCaP tumor uptake [7]: 2 h
- Max. LNCaP Tumor Uptake ([7]; 2 h post injection): 14.30 ± 2.49^ % ID/g
- Max. LNCaP Tumor Uptake ([7]; 2 h post injection, listed as [^18F]RPS-040): 14.30±2.49 % ID/g
Structure (SMILES): O=C(O)CC[C@H](NC(=O)N[C@@H](CCCCNC(=O)Nc1cccc(-c2cn(CCF)nn2)c1)C(=O)O)C(=O)O [RPS-040, (((S)-1-Carboxy-5-(3-(3-(1-(2-fluoroethyl)-1H-1,2,3-triazol-4-yl)phenyl)ureido)pentyl)carbamoyl)-L-glutamic acid]

- IC50 [1]: 3.2 nM
- Max. LNCaP Tumor Uptake [2]: 12.51 % ID/g
- Tumor-to-blood ratio ([7]; 1 h post injection): 20.78±7.87
- Tumor-to-blood ratio relative to [68Ga]Ga-PSMA-HBED-CC ([7]; 1 h post injection): more than two-fold
- Tumor-to-kidney ratio (contrast) relative to [68Ga]Ga-PSMA-HBED-CC ([7]; 1 h post injection): twelve-fold greater
- Contrast (tumor-to-background) relative to [18F]RPS-040 ([7]; 2 h post injection): two-fold greater
- Uptake in the kidneys ([7]; 2 h post injection): 23.93±5.45 % ID/g
- Uptake in the liver ([7]; 2 h post injection): 2.51±0.21 % ID/g
- Uptake in the spleen ([7]; 2 h post injection): 1.13±0.47 % ID/g
- Tumor-to-blood ratio ([7]; 4 h post injection): 118.4±69.4
- Tumor uptake relative to [68Ga]Ga-PSMA-HBED-CC [7]: nearly two-fold greater
- Time p.i. of max. LNCaP tumor uptake [7]: 2 h
- Max. LNCaP Tumor Uptake ([7]; 2 h post injection): 10.86 ± 1.03^ % ID/g
- Max. LNCaP Tumor Uptake ([7]; 2 h post injection, listed as [^18F]RPS-041): 10.86±1.03 % ID/g
Structure (SMILES): O=C(O)CC[C@H](NC(=O)N[C@@H](CCCCNC(=O)Nc1ccc(-c2cn(CCF)nn2)cc1)C(=O)O)C(=O)O [RPS-041, (((S)-1-Carboxy-5-(3-(4-(1-(2-fluoroethyl)-1H-1,2,3-triazol-4-yl)phenyl)ureido)pentyl)carbamoyl)-L-glutamic acid]

- IC50 [1]: 21.3 nM
- Max. LNCaP Tumor Uptake [2]: 8.87 ± 0.64^c % ID/g
- Time p.i. of max. LNCaP tumor uptake [2]: 2 h
Structure (SMILES): O=C(O)CC[C@H](NC(=O)N[C@@H](CCCCNC(=O)Nc1ccc(OCc2cn(CCF)nn2)cc1)C(=O)O)C(=O)O [RPS-038, (((S)-1-Carboxy-5-(3-(4-((1-(2-fluoroethyl)-1H-1,2,3-triazol-4-yl)methoxy)phenyl)ureido)pentyl)carbamoyl)-L-glutamic acid]

- IC50 [1]: 10.2 nM
- Max. LNCaP Tumor Uptake [2]: 10.06 ± 1.33^c % ID/g
- Time p.i. of max. LNCaP tumor uptake [2]: 2 h
Structure (SMILES): O=C(O)CC[C@H](NC(=O)N[C@@H](CCCCNC(=O)Nc1ccccc1-c1cn(CCF)nn1)C(=O)O)C(=O)O [RPS-042, (((S)-1-Carboxy-5-(3-(2-(1-(2-fluoroethyl)-1H-1,2,3-triazol-4-yl)phenyl)ureido)pentyl)carbamoyl)-L-glutamic acid]
- Route of clearance / excretion [2]: clearance via the hepatobiliary pathway in addition to renal clearance

- IC50 [1]: 14 nM
- Time p.i. of max. LNCaP tumor uptake [2]: 2 h
Structure (SMILES): O=C(O)CC[C@H](NC(=O)N[C@@H](CCCCNC(=O)Nc1ccccc1OCc1cn(CCF)nn1)C(=O)O)C(=O)O [RPS-039, (((S)-1-Carboxy-5-(3-(2-((1-(2-fluoroethyl)-1H-1,2,3-triazol-4-yl)methoxy)phenyl)ureido)pentyl)carbamoyl)-L-glutamic acid]
- Route of clearance / excretion [2]: clearance via the hepatobiliary pathway in addition to renal clearance
- Max. LNCaP Tumor Uptake [2]: 5.87±0.27 % ID/g and 5.89 ± 0.27^c % ID/g
